Values quoted from earlier work as cited in US10894960B2, “Compositions and methods for nucleic acid transfer” (Children's Hospital Medical Center, priority 2016, dated 2021).

Target: PARP-1 (Homo sapiens, UniProt P09874)
Settings: Target PARP-1, gene symbol PARP1

Row | Compound | Effect
1 | O=[As]O[As]=O (stereo not shown) [As(,2)O(,3)] | Inhibition

Target: NR3A (Homo sapiens, UniProt Q8TCU5)
Settings: Target NR3A, gene symbol GRIN3A

Chain of NR3A (Q8TCU5 24-1115, species assumed, other chains not shown): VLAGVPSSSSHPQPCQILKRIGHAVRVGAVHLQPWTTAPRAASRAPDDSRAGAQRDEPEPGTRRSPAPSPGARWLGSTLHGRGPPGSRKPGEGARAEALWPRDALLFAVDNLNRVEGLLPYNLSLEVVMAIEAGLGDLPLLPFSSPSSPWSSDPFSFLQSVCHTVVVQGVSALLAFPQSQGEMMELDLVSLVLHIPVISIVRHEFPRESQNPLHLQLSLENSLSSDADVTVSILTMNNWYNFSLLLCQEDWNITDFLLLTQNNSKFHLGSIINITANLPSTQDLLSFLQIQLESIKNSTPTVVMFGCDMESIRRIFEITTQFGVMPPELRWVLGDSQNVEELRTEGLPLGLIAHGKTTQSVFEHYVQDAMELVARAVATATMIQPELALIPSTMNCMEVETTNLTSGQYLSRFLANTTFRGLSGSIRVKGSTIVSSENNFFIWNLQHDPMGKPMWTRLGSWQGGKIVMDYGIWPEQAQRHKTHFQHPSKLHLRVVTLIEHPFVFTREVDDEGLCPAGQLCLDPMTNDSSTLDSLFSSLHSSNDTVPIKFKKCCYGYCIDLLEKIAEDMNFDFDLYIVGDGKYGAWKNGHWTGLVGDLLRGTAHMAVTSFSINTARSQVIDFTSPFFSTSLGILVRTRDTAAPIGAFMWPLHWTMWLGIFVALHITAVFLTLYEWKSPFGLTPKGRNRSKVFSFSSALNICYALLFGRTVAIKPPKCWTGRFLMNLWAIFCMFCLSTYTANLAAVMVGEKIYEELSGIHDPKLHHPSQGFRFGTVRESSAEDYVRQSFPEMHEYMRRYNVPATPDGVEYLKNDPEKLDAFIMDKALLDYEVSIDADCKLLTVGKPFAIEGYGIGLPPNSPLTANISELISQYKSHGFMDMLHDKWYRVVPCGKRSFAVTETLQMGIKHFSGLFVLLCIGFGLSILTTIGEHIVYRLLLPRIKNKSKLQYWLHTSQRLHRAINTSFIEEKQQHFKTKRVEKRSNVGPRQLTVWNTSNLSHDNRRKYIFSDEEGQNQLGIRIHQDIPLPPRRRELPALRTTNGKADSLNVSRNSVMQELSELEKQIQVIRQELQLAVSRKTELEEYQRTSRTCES

Row | Compound | Effect
2 | CC12CC3CC(C)(C1)CC(N)(C3)C2 [Memantine] | Inhibition
3 | CNC1(c2ccccc2Cl)CCCCC1=O (stereo not shown) [Ketamine] | Inhibition

Target: TOP2 beta (Homo sapiens, UniProt Q02880)
Sequence (Q02880 whole entry): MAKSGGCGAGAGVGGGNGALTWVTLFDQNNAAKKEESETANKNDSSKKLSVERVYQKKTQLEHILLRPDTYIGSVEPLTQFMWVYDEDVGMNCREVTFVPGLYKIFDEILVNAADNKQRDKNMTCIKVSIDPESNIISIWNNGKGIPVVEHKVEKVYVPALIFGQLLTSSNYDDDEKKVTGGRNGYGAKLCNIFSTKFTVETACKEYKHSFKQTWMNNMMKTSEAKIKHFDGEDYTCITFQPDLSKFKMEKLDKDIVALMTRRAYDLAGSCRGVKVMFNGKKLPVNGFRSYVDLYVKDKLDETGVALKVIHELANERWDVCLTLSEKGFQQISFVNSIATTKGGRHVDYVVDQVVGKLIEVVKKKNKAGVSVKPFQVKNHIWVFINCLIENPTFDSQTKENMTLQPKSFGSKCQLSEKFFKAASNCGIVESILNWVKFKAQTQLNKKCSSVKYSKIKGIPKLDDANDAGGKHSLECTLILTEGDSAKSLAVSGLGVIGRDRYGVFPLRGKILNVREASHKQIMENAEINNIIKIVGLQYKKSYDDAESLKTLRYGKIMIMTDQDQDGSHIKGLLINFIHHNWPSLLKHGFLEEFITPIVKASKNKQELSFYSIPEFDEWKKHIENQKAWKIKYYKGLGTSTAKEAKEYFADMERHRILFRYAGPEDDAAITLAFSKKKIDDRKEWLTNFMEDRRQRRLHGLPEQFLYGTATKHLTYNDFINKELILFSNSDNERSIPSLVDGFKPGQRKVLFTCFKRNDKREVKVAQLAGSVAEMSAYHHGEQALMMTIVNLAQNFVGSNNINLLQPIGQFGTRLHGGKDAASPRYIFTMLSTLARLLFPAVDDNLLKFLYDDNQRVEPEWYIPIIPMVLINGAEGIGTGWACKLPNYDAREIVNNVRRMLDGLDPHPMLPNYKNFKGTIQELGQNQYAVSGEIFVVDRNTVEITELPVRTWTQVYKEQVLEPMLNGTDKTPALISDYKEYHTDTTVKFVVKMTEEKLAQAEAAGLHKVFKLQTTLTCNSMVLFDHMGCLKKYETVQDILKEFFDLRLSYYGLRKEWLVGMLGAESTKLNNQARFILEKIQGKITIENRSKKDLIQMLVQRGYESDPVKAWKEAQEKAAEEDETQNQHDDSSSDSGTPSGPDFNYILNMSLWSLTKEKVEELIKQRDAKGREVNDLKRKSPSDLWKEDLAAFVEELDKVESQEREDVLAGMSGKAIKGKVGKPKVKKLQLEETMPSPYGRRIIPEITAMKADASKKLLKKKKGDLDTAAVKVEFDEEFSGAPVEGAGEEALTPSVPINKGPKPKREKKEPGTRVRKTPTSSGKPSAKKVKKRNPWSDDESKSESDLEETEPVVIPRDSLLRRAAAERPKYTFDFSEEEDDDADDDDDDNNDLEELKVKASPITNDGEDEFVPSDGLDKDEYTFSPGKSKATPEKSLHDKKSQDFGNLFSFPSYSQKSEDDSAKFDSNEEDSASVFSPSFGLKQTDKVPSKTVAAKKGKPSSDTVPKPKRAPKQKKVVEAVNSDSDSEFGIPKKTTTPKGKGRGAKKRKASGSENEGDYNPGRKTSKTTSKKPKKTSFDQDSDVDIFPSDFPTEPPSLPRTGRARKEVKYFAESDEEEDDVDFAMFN
Settings: Target TOP2 beta, gene symbol TOP2B

Row | Compound | Effect
4 | COc1cc([C@@H]2c3cc4c(cc3[C@@H](O[C@@H]3O[C@@H]5CO[C@@H](C)O[C@H]5[C@H](O)[C@H]3O)[C@H]3COC(=O)[C@H]23)OCO4)cc(OC)c1O [Etoposide] | Inhibition
5 | COc1cc([C@@H]2c3cc4c(cc3[C@@H](CCN(C)CCN(C)C)[C@H]3COC(=O)[C@H]23)OCO4)cc(OC)c1O [TOP53] | Inhibition
6 | Cc1cnc(NCCCN(C)C)c2c1[nH]c1ccc3cc(O)ccc3c12 [Intoplicine] | Inhibition
7 | COc1cc([C@@H]2c3cc4c(cc3[C@@H](O[C@@H]3O[C@@H]5CO[C@@H](c6cccs6)O[C@H]5[C@H](O)[C@H]3O)[C@H]3COC(=O)[C@H]23)OCO4)cc(OC)c1O [Teniposide] | Inhibition
8 | O=C(Nc1ccc2ncccc2c1)C(=O)c1cn(Cc2ccc(Cl)cc2)c2ccccc12 [Entasobulin] | Inhibition
9 | CO[C@@H]1[C@@H](N)[C@@H](O[C@H]2[C@H](Oc3cccc4c(O)c5c(=O)oc6ccc(C)c7c(=O)oc(c34)c5c67)O[C@H](C)[C@H](O)[C@]2(C)O)O[C@H](C)[C@@H]1O [Elsamitrucin] | Inhibition
10 | COc1ccc2c(c[n+](C)c3c4cc5c(cc4ccc23)OCO5)c1O [NK109] | Inhibition
11 | C[C@@H]1O[C@@H](O[C@H]2C[C@](O)(C(=O)CO)Cc3c(O)c4c(c(O)c32)C(=O)c2ccccc2C4=O)[C@H](I)[C@H](O)[C@H]1O [Annamycin] | Inhibition

Target: SUR1 (Homo sapiens, UniProt Q09428)
Sequence (Q09428 whole entry, species assumed): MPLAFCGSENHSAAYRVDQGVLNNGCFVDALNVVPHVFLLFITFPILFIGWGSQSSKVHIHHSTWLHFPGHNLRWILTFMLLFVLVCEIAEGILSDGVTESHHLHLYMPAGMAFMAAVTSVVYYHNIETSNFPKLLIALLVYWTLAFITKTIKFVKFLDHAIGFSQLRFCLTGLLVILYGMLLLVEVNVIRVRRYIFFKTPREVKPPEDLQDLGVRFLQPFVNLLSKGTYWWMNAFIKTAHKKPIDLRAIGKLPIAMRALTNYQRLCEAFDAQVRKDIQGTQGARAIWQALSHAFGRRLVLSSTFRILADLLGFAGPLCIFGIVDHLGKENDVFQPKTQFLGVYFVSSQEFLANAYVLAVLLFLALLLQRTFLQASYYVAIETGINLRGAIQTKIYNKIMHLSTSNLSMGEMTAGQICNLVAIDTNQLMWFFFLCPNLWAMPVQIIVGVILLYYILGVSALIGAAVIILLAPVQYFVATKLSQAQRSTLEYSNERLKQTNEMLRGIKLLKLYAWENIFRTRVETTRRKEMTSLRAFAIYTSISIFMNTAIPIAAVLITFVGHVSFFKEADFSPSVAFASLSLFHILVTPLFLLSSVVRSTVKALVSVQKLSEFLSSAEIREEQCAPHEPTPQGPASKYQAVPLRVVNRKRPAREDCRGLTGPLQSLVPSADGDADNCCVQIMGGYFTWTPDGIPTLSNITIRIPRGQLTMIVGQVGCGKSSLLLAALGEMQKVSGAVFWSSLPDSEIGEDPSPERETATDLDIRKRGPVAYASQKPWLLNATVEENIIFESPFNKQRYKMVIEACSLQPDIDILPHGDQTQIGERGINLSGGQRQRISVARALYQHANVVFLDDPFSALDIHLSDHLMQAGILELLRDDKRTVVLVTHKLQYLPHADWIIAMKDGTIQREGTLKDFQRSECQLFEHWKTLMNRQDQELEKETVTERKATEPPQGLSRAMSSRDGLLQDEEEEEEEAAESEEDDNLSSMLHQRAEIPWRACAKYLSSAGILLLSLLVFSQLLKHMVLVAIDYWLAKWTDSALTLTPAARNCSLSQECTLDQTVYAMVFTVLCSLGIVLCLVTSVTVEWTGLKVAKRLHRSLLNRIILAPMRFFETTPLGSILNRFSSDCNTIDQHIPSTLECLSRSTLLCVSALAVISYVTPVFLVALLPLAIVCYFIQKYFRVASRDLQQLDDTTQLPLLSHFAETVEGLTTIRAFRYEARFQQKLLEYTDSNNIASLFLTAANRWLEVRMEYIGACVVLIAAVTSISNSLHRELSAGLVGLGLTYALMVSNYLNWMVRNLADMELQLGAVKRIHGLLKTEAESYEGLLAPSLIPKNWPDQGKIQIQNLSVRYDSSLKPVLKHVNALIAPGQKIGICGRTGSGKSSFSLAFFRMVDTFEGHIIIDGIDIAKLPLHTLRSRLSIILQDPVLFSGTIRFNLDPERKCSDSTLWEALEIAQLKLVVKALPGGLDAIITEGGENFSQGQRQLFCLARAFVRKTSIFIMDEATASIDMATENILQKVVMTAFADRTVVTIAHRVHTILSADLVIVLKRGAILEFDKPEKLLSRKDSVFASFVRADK
Sequence (Q14654 whole entry partner, species assumed): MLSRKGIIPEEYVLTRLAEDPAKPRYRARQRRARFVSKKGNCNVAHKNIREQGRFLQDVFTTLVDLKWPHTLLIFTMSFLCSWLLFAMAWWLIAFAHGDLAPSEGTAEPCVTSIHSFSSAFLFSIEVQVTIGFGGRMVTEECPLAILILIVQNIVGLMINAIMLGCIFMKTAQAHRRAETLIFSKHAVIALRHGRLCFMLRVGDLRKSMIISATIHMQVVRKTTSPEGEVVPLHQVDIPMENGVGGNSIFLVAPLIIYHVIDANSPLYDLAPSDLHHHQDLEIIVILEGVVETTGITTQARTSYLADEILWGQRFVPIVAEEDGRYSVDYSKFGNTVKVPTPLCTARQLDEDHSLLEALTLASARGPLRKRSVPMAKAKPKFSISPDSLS
Settings: Target SUR1, gene symbol ABCC8

Row | Compound | Effect
12 | CCC1=C(C)CN(C(=O)NCCc2ccc(S(=O)(=O)NC(=O)N[C@H]3CC[C@H](C)CC3)cc2)C1=O [Glimepiride] | Inhibition
13 | CC(=O)c1ccc(S(=O)(=O)NC(=O)NC2CCCCC2)cc1 [Acetohexamide] | Activation
14 | CCOc1cc(CC(=O)N[C@@H](CC(C)C)c2ccccc2N2CCCCC2)ccc1C(=O)O (racemic) [(R/S)-Repaglinide] | Inhibition
15 | CC1=NS(=O)(=O)c2cc(Cl)ccc2N1 [Diazoxide] | Activation
16 | C1CCC2(C1)C1CN(CC3CC3)CC2CN(CC2CC2)C1 [Tedisamil] | Inhibition
